For experiment [1], the target named is T1, cloned human h-NK2 receptors expressed in Sf9 cells (Homo sapiens, UniProt P21452).
T1 construct: expressed in transfected cells; host or cells: Sf9 cells
T1 sequence (P21452 1-398): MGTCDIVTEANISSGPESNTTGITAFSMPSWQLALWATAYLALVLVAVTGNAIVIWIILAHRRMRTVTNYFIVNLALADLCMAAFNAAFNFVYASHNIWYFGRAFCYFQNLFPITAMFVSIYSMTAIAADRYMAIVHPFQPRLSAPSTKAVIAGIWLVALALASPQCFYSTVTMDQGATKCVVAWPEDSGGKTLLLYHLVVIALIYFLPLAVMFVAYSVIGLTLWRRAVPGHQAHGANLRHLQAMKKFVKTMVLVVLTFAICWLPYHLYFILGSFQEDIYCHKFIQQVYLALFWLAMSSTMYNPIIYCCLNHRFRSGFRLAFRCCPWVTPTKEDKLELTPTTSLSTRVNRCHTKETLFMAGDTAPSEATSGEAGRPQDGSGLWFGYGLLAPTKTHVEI
As to the kind of experiment: Binding experiment for h-NK2 receptors ([3H]-SR-48968 displacement). The conditions noted are these: [3H]-SR-48968, Sf9 cells; read-out: h-NK2 pIC50 (converted). As for the experimental part:
(§1) The compounds according to the invention were investigated for interaction with various neurotransmitter receptors, ion channels and transporter binding sites using the radioligand binding technique. Membranes from tissue homogenates or from cells, expressing the receptor or transporter of interests, were incubated with a radioactively labelled substance ([^3H]- or [^125I] ligand) to label a particular receptor. […] Following incubation, labelled membranes were harvested and rinsed with excessive cold buffer to remove non-bound radioactivity by rapid filtration under suction. Membrane bound radioactivity was counted in a scintillation counter and results were expressed in counts per minute (cpm).
(§2) The compounds were dissolved in DMSO and tested at 10 concentrations ranging from 10^−10 to 10^−5 M.
(§3) The ability of the compounds according to the invention to displace [^3H]-Substance P from cloned human h-NK1 receptors expressed in CHO cells, to displace [^3H]-SR-48968 from cloned human h-NK2 receptors expressed in Sf9 cells, and to displace [^3H]-SR-142801 from cloned human h-NK3 receptors expressed in CHO cells was evaluated.

The target in experiment [2] is T2, cloned human h-NK1 receptors expressed in CHO cells (Homo sapiens, UniProt P25103).
T2 construct: expressed in transfected cells; host or cells: CHO cells
As to the kind of experiment: Binding experiment for h-NK1 receptors ([3H]-Substance P displacement). The note with it: read-out: h-NK1 pIC50 (converted). As for the experimental part:
as §1, §2, §3

The target in experiment [3] is T3, cloned human h-NK3 receptors expressed in CHO cells (Homo sapiens, UniProt P29371).
T3 construct: expressed in transfected cells; host or cells: CHO cells
T3 sequence (P29371 1-465): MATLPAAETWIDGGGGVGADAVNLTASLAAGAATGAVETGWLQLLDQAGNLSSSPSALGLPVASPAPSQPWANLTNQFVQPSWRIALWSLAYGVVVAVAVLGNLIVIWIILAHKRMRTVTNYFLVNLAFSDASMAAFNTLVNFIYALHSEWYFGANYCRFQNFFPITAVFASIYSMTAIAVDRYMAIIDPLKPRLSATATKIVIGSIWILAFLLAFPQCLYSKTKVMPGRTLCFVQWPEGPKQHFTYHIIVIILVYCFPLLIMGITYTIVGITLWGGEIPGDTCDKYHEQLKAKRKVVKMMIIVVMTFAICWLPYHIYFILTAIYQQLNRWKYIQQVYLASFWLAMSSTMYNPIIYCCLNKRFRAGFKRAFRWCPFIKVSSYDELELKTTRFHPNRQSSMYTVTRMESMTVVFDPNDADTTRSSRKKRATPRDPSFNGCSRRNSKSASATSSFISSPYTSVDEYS
As to the kind of experiment: Binding experiment for h-NK3 receptors ([3H]-SR-142801 displacement). The note with it: [3H]-SR-142801, CHO cells; read-out: h-NK3 pIC50 (converted). As for the experimental part:
as §1, §2, §3

T2 sequence (P25103 whole entry): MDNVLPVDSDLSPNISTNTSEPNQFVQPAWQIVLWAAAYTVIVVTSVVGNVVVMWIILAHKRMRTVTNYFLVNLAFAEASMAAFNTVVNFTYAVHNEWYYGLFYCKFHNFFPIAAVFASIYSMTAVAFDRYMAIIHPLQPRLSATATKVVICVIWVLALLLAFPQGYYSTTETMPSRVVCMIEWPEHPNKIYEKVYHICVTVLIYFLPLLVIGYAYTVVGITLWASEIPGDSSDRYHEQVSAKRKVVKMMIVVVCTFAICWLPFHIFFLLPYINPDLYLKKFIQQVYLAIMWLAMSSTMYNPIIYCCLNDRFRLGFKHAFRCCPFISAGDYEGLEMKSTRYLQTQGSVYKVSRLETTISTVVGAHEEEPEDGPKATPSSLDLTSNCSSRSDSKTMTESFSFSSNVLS

Take `O=C(c1cccc(Cl)c1)N1CCC(N2CCN([C@H]3CCN(C(=O)c4cc(C(F)(F)F)cc(C(F)(F)F)c4)[C@H](Cc4ccccc4)C3)CC2)CC1` [Compound 32]: the IC50 in experiment [1] is 0.631 µM; in experiment [2] it was 0.00158 µM; in experiment [3], 0.158 µM.
The matching figures for `O=C(c1cc(C(F)(F)F)cc(C(F)(F)F)c1)N1CCC(N2CCN(C3CCN(Cc4cc(C(F)(F)F)cc(C(F)(F)F)c4)CC3)CC2)CC1Cc1ccccc1` (stereo not drawn) [Compound 26]: 1 µM, 0.0398 µM and 1 µM.
The matching figures for `Cc1oncc1C(=O)N1CCC(N2CCN(C3CCN(C(=O)c4cc(C(F)(F)F)cc(C(F)(F)F)c4)C(Cc4ccccc4)C3)CC2)CC1` (stereo not drawn) [Compound 4]: 6.31 µM, 0.00158 µM and 0.2 µM.
Turning to `Cc1nnsc1C(=O)N1CCC(N2CCN([C@@H]3CCN(C(=O)c4cc(C(F)(F)F)cc(C(F)(F)F)c4)[C@@H](Cc4ccccc4)C3)CC2)CC1` [Compound 141], the IC50 in experiment [1] was 3.98 µM; in experiment [2], 0.00794 µM; in experiment [3] it was 3.98 µM.
On to `Cc1cccc(C(=O)N2CCC(N3CCN([C@H]4CCN(C(=O)c5cc(C(F)(F)F)cc(C(F)(F)F)c5)[C@H](Cc5ccccc5)C4)CC3)CC2)c1` [Compound 37], for which the IC50 in experiment [1] is 0.501 µM; in experiment [2] it was 0.00398 µM; in experiment [3], 0.251 µM.
Consider `O=C(c1ccccc1O)N1CCC(N2CCN([C@H]3CCN(C(=O)c4cc(C(F)(F)F)cc(C(F)(F)F)c4)[C@H](Cc4ccccc4)C3)CC2)CC1` [Compound 36], for which the IC50 in experiment [1] is 0.794 µM; in experiment [2], 0.001 µM; in experiment [3], 0.794 µM.

(Values after patent US20060128721A1, “Novel formulations of opioid-based treatments of pain comprising substituted 1,4-di-piperidin-4-yl-piperazine derivatives” (priority 2003, published 2006).)
